Assay results reported in patent US20130011347A1, “Personal Care Compositions With Improved Solubility of a Solid Cosmetic Active” (priority 2011, published 2013).

Columns and labels:
[1] = Solvency of solvents for tetrahydrocurcuminoids (THC) (visual solubility after storage); settings: solute tetrahydrocurcuminoids (THC), 3% test solution, approximately 1:32 solute to solvent ratio, soluble = no visible crystals
[2] = Solvency of solvents for hexylresorcinol (visual solubility after storage); settings: solute hexylresorcinol, 33.5% test solution, approximately 1:2 solute to solvent ratio, soluble = no visible crystals
Protocol: (§1) In the testing provided below, “soluble” (or “solubilize”), in relation to the solubility of a solid solute being tested, means that no visible crystals may be seen after a prescribed storage period at a storage condition. The storage period can vary. Suitable storage periods include about 24 hours, about 1 week, and about 30 days. Suitable storage conditions include ambient conditions or cold storage at 5° C. (approximately 1 atm). In certain embodiments, solubility may be determined after a 24 hour storage period at ambient conditions. In other embodiments, solubility may be determined after 20 days in cold storage. Other testing parameters may include storage for prolonged time periods (e.g., 30 day, 50 days, 60 days, 90 days) and at variable temperatures (e.g., 5° C., 50° C.).
(§2) The solvency of an isosorbide diester within the scope of the present invention was tested against two conventional, industry standard solvents. […] A test solution of 33.5% hexylresorcinol is prepared with heating to 70° C. Upon reaching 70° C., the examples may be mixed for about 10 minutes. Place mixtures in a covered vial and cool to the storage temperature. Solubility is evaluated for samples stored 24 hours at ambient conditions. Solubility is also evaluated for samples stored for 7 day at 5° C. followed by equilibration to ambient conditions.

[3] = Solvency of solvents for (S)-Equol (visual solubility after storage); settings: solute (S)-Equol, 6% test solution, approximately 1:16 solute to solvent ratio, soluble = no visible crystals
Protocol: as §1
as §2, with “solution was” for “solution”, “6% Equol” for “33.5% hexylresorcinol”

[4] = then equilibration to ambient conditions

CCCCCCCCCCCC(=O)N(C)CC(=O)OC(C)C [Isopropyl lauroyl sarcosinate, isopropyl lauroyl sarcosinate]
Soluble: Solubility, 24 hour rest at Ambient Conditions ([1]; prepared at 70° C.) | Solubility, 7 day storage at 5° C. [1, 4] | Solubility, 24 hour rest at Ambient Conditions ([2]; prepared at 70° C.) | Solubility, 7 day storage at 5° C. [2, 4] | Solubility, 24 hour rest at Ambient Conditions ([3]; prepared at 70° C.) | Solubility, 7 day storage at 5° C. [3, 4]
